This passage reports EC50 results from patent US9156872B2, “2′-azido substituted nucleoside derivatives and methods of use thereof for the treatment of viral diseases” (priority 2011, dated 2015).

The pEC50 is −log10 of the EC50, conventionally taken in molar units.

The experiment has as its system HCV replicon cells. The experiment in a line: Cell-based HCV replicon assay (replicon RNA by Taqman real time PCR). Particulars: read-out: 1b EC50. (A replicon is a self-replicating genome or part of one, used to study replication in cells.)
Setting [1] is: HCV replicon 1b, cells harvested on day 3.
Where [2] appears, read: Hepatitis C virus, 72 h, HCV replicon 1b, cells harvested on day 3.

Each structure is given as a SMILES string. pEC50: −log10 of the molar value. Where two headings read alike, the source gives them in different places.

Consider `COC(=O)c1ccccc1OP(=O)(N[C@@H](C)C(=O)OC)OC[C@H]1O[C@@H](n2ccc(=O)[nH]c2=O)[C@](C)(N=[N+]=[N-])[C@@H]1O` (single isomer, unassigned) [Compound 216], for which the negative-log EC50 (pEC50) is 5.89. Consider `COc1nc(N)nc2c1ncn2[C@@H]1O[C@H](COP(=O)(N[C@@H](C)C(=O)OC2CCCCC2)Oc2ccc(F)cc2)[C@@H](O)[C@@]1(C)N=[N+]=[N-]` (single isomer, unassigned) [Compound 264], for which the pEC50 is 6.70.

For `CCOc1nc(N)nc2c1ncn2[C@@H]1O[C@@H]2COP(=O)(OC3CCC3)O[C@H]2[C@@]1(C)N=[N+]=[N-]` (single isomer, unassigned) [Compound 108], the pEC50 under setting [1] was 4.62. For the compound `COC(=O)[C@H](C)NP(=O)(OC[C@H]1O[C@@H](n2ccc(=O)[nH]c2=O)[C@](C)(N=[N+]=[N-])[C@@H]1O)Oc1ccc(Cl)cc1` (stereo partly shown) [Compound 50], the pEC50 (Hepatitis C virus, 72 h) was 5.40. As for `CCOc1nc(N)nc2c1ncn2[C@@H]1O[C@H](COP(=O)(N[C@@H](C)C(=O)OC)Oc2ccc(Cl)cc2)[C@@H](O)[C@@]1(C)N=[N+]=[N-]` (single isomer, unassigned) [Compound 312], the negative logarithm of the EC50 (pEC50) is 5.66.

For `C[C@@]1(N=[N+]=[N-])[C@@H]2OP(=O)(Oc3ccccc3)OC[C@H]2O[C@H]1n1ccc(N)nc1=O` (stereo partly shown) [Compound 65], the pEC50 (Hepatitis C virus, 72 h) is 4.25. With `COC(=O)c1ccccc1OP(=O)(N[C@@H](C)C(=O)OC)OC[C@H]1O[C@@H](n2ccc(=O)[nH]c2=O)[C@](C)(N=[N+]=[N-])[C@@H]1O` (single isomer, unassigned) [Compound 227], the pEC50 is 5.51. Turning to `CCOc1nc(N)nc2c1ncn2[C@@H]1O[C@@H]2COP(=O)(OC3CCCCC3)O[C@H]2[C@@]1(C)N=[N+]=[N-]` (stereo partly shown) [Compound 106], the pEC50 under setting [2] was 4.30.

For the compound `CCOc1nc(N)nc2c1ncn2[C@@H]1O[C@@H]2COP(=O)(NC3CCCCC3)O[C@H]2[C@@]1(C)N=[N+]=[N-]` (stereo partly shown) [Compound 572], the pEC50 under setting [2] is 4.00. As for `COc1nc(N)nc2c1ncn2[C@@H]1O[C@H](COP(=O)(N[C@@H](C)C(=O)OC2CCCCC2)Oc2ccccc2)[C@@H](O)[C@@]1(C)N=[N+]=[N-]` (single isomer, unassigned) [Compound 275], the pEC50 is 5.82. In the case of `COc1nc(N)nc2c1ncn2[C@@H]1O[C@H](COP(=O)(N[C@@H](C)C(=O)OC(C)C)Oc2ccc(Cl)cc2)[C@@H](O)[C@@]1(C)N=[N+]=[N-]` (single isomer, unassigned) [Compound 293], the pEC50 (Hepatitis C virus, 72 h) is 5.24. For the compound `COC(=O)[C@H](C)NP(=O)(OC[C@H]1O[C@@H](n2ccc(N)nc2=O)[C@](C)(N=[N+]=[N-])[C@@H]1O)Oc1ccc(F)cc1` (single isomer, unassigned) [Compound 188], the negative logarithm of the EC50 (pEC50) is 5.25.

Regarding `COc1nc(N)nc2c1ncn2[C@@H]1O[C@H](COP(=O)(N[C@@H](C)C(=O)OC(C)C)Oc2ccccc2Cl)[C@@H](O)[C@@]1(C)N=[N+]=[N-]` (stereo partly shown) [Compound 240], the pEC50 (Hepatitis C virus, 72 h) was 5.24. In the case of `COC(=O)[C@H](C)NP(=O)(OC[C@H]1O[C@@H](n2ccc(N)nc2=O)[C@](C)(N=[N+]=[N-])[C@@H]1O)Oc1ccccc1Cl` (single isomer, unassigned) [Compound 330], the pEC50 (Hepatitis C virus, 72 h) was 4.92. Consider `COc1nc(N)nc2c1ncn2[C@@H]1O[C@H](COP(=O)(N[C@@H](C)C(=O)OC(C)C)Oc2ccc(Cl)cc2)[C@@H](O)[C@@]1(C)N=[N+]=[N-]` (single isomer, unassigned) [Compound 294], for which the pEC50 is 5.47. Still for that read-out and setting: to `COC(=O)[C@H](C)NP(=O)(OC[C@H]1O[C@@H](n2ccc(=O)[nH]c2=O)[C@](C)(N=[N+]=[N-])[C@@H]1O)Oc1ccc(Cl)cc1` (stereo partly shown) [Compound 325] belongs 5.40; to `COC(=O)[C@H](C)NP(=O)(OC[C@H]1O[C@@H](n2ccc(N)nc2=O)[C@](C)(N=[N+]=[N-])[C@@H]1O)Oc1ccc(Cl)c(Cl)c1` (single isomer, unassigned) [Compound 344], 4.46. Take `CC(C)OP1(=O)OC[C@H]2O[C@@H](n3ccc(=O)[nH]c3=O)[C@](C)(N=[N+]=[N-])[C@@H]2O1` (single isomer, unassigned) [Compound 564]: the pEC50 under setting [1] was less than 4.00. `CCCOP1(=O)OC[C@H]2O[C@@H](n3cnc4c(OCC)nc(N)nc43)[C@](C)(N=[N+]=[N-])[C@@H]2O1` (stereo partly shown) [Compound 24]: under setting [2], the pEC50 was less than 4.00. Regarding `C[C@@H](NP(=O)(OC[C@H]1O[C@@H](n2ccc(=O)[nH]c2=O)[C@](C)(N=[N+]=[N-])[C@@H]1O)Oc1ccccc1)C(=O)OCc1ccccc1` (stereo partly shown) [Compound 45], the pEC50 (Hepatitis C virus, 72 h) was 5.25.

`COC(=O)[C@H](C)NP(=O)(OC[C@H]1O[C@@H](n2ccc(=O)[nH]c2=O)[C@](C)(N=[N+]=[N-])[C@@H]1O)Oc1cccc2ccccc12` (single isomer, unassigned) [Compound 217]: the pEC50 was 5.68. On to `COc1nc(N)nc2c1ncn2[C@@H]1O[C@H](COP(=O)(N[C@@H](C)C(=O)OCc2ccccc2)Oc2ccccc2)[C@@H](O)[C@@]1(C)N=[N+]=[N-]` (single isomer, unassigned) [Compound 278], for which the pEC50 is 5.14. As for `CCCOC(=O)[C@H](C)NP(=O)(OC[C@H]1O[C@@H](n2cnc3c(OCC)nc(N)nc32)[C@](C)(N=[N+]=[N-])[C@@H]1O)Oc1ccccc1` (single isomer, unassigned) [Compound 163], the pEC50 (Hepatitis C virus, 72 h) is 5.96.

`COc1nc(N)nc2c1ncn2[C@@H]1O[C@H](COP(=O)(N[C@@H](C)C(=O)OC(C)C)Oc2ccccc2)C(O)[C@@]1(C)N=[N+]=[N-]` (single isomer, unassigned) [Compound 252]: under “Hepatitis C virus, 72 h”, the pEC50 was 5.96. With `C[C@H](NP(=O)(OC[C@H]1O[C@@H](n2ccc(=O)[nH]c2=O)[C@](C)(N=[N+]=[N-])[C@@H]1O)Oc1ccc(F)cc1)C(=O)OC1CCCCC1` (stereo partly shown) [Compound 89], the pEC50 was less than 4.00. In the case of `CCOc1nc(N)nc2c1ncn2[C@@H]1O[C@H](COP(=O)(N[C@@H](C)C(=O)OC)Oc2ccc(F)cc2)[C@@H](O)[C@@]1(C)N=[N+]=[N-]` (single isomer, unassigned) [Compound 173], the pEC50 (Hepatitis C virus, 72 h) is 6.22.

Consider `CCOc1nc(N)nc2c1ncn2[C@@H]1O[C@@H]2COP(=O)(OC3CCC3)O[C@H]2[C@@]1(C)N=[N+]=[N-]` (single isomer, unassigned) [Compound 101], for which, under setting [1], the pEC50 is 7.00. `C[C@H](NP(=O)(OC[C@H]1O[C@@H](n2ccc(=O)[nH]c2=O)[C@](C)(N=[N+]=[N-])[C@@H]1O)Oc1ccc2c(c1)OCO2)C(=O)OCc1ccccc1` (stereo partly shown) [Compound 305]: the pEC50 (Hepatitis C virus, 72 h) is 5.92.

On to `CCCCOC(=O)[C@H](C)NP(=O)(OC[C@H]1O[C@@H](n2ccc(=O)[nH]c2=O)[C@](C)(N=[N+]=[N-])[C@@H]1O)Oc1ccc(F)cc1` (stereo partly shown) [Compound 367], for which the pEC50 (Hepatitis C virus, 72 h) was 5.48. For the compound `CCOc1nc(N)nc2c1ncn2[C@@H]1O[C@H](COP(=O)(N[C@@H](C)C(=O)OCc2ccccc2)Oc2ccccc2)[C@@H](O)[C@@]1(C)N=[N+]=[N-]` (single isomer, unassigned) [Compound 351], the pEC50 was 5.59. Consider `CC(=O)Nc1ccn([C@@H]2O[C@H](CO)[C@@H](O)[C@@]2(C)N=[N+]=[N-])c(=O)n1` [Compound 2], for which the pEC50 under setting [2] is 4.12.

Regarding `CCCOC(=O)[C@H](C)NP(=O)(OC[C@H]1O[C@@H](n2cnc3c(OC)nc(N)nc32)[C@](C)(N=[N+]=[N-])C1O)Oc1ccccc1` (single isomer, unassigned) [Compound 288], the negative-log EC50 (pEC50) is 6.05. Take `COC(=O)[C@H](C)NP1(=O)OC[C@H]2O[C@@H](n3ccc(N)nc3=O)[C@](C)(N=[N+]=[N-])[C@@H]2O1` (single isomer, unassigned) [Compound 529]: under setting [2], the pEC50 was 4.23.

As for `CCOC(=O)[C@H](C)NP(=O)(OC[C@H]1O[C@@H](n2cnc3c(OCC)nc(N)nc32)[C@](C)(N=[N+]=[N-])[C@@H]1O)Oc1ccccc1Cl` (stereo partly shown) [Compound 349], under “Hepatitis C virus, 72 h”, the negative logarithm of the EC50 (pEC50) was 5.70.

Turning to `COc1nc(N)nc2c1ncn2[C@@H]1O[C@H](COP(=O)(N[C@@H](C)C(=O)OC2CCCCC2)Oc2ccc(F)cc2)[C@@H](O)[C@@]1(C)N=[N+]=[N-]` (stereo partly shown) [Compound 241], the pEC50 (Hepatitis C virus, 72 h) is 5.72. As to `CCOc1nc(N)nc2c1ncn2[C@@H]1O[C@H](COP(=O)(N[C@@H](C)C(=O)OC(C)C)Oc2ccc(F)cc2)[C@@H](O)[C@@]1(C)N=[N+]=[N-]` (single isomer, unassigned) [Compound 364], the pEC50 was 5.19. Still for that read-out and setting: to `COc1nc(N)nc2c1ncn2[C@@H]1O[C@H](COP(=O)(N[C@@H](C)C(=O)OCC(C)(C)C)Oc2ccccc2)C(O)[C@@]1(C)N=[N+]=[N-]` (single isomer, unassigned) [Compound 291] belongs 5.62. With `CCOc1nc(N)nc2c1ncn2[C@@H]1O[C@H](COP(=O)(N[C@@H](C)C(=O)OC(C)C)Oc2ccccc2)[C@@H](O)[C@@]1(C)N=[N+]=[N-]` (single isomer, unassigned) [Compound 166], the pEC50 is 6.10. In the case of `COC(=O)c1ccccc1OP(=O)(N[C@@H](C)C(=O)OC)OC[C@H]1O[C@@H](n2cnc3c(OC)nc(N)nc32)[C@](C)(N=[N+]=[N-])[C@@H]1O` (stereo partly shown) [Compound 223], for the setting “Hepatitis C virus, 72 h”, the negative-log EC50 (pEC50) is 5.06. Same read-out and setting: in the case of `COc1nc(N)nc2c1ncn2[C@@H]1O[C@H](COP(=O)(N[C@@H](C)C(=O)OC(C)C)Oc2ccc(Cl)c(Cl)c2)[C@@H](O)[C@@]1(C)N=[N+]=[N-]` (single isomer, unassigned) [Compound 282] it was 5.30. With `CC(C)OC(=O)[C@H](C)NP(=O)(OC[C@H]1O[C@@H](n2ccc(N)nc2=O)[C@](C)(N=[N+]=[N-])[C@@H]1O)Oc1ccc2c(c1)OCO2` (single isomer, unassigned) [Compound 335], the pEC50 was less than 4.00. With `C[C@H](NP(=O)(OC[C@H]1O[C@@H](n2ccc(=O)[nH]c2=O)[C@](C)(N=[N+]=[N-])[C@@H]1O)Oc1ccccc1)C(=O)OCc1ccccc1` (single isomer, unassigned) [Compound 301], the pEC50 was 5.57. In the case of `COC(=O)[C@H](C)NP(=O)(OC[C@H]1O[C@@H](n2ccc(N)nc2=O)[C@](C)(N=[N+]=[N-])[C@@H]1O)Oc1ccc(Cl)c(Cl)c1` (single isomer, unassigned) [Compound 343], the pEC50 (Hepatitis C virus, 72 h) was 4.21.
